Series [1] in a line: Ratio of drug level in tumor to blood of Balb/c mouse allografted with mouse B16F10 cells using 99mTc(CO)3-labeled compound at 10 to 12 MBq/kg, iv measured at 4 hrs. It is filed as ADME, organism-based, Tumor/tissue.
For series [2], the system named is B16-F10. As to the kind of experiment: Cytotoxicity against mouse B16F10 cells assessed as decrease in cell viability after 72 hrs by MTT assay. It is filed as functional, cell-based. As to conditions: B16-F10, 72 h. Background: Tetrazolium dyes change colour on reduction, which living cells bring about.
Series [3] is described as follows: Drug uptake in tumor muscle of Balb/c mouse allografted with mouse B16F10 cells using 99mTc(CO)3-labeled compound at 10 to 12 MBq/kg, iv measured at 4 hrs. It is filed as ADME, organism-based. The note with it: in vivo.
The nature of series [4]: Metabolic stability in rat serum assessed as parent compound remaining using 99mTc(CO)3-labeled compound after 24 hrs by TLC method. It is filed as ADME, cell-free. As to conditions: read-out: Stability.
A short description of series [5]: Drug uptake in mouse B16F10 cells using 99mTc(CO)3-labeled compound at 15 to 20 MBq/ml after 240 mins by gamma scintillation counting method relative to total added activity. The note with it: b16-f10, 4 h. It is filed as ADME, cell-based.
The test system of series [6] is B16-F10. The experiment in a line: Antitumor activity against mouse B16F10 cells allografted in Balb/c mouse assessed as decrease in tumor development at 25 mg/kg, iv administered thrice weekly for 21 days starting on day 10 post tumor implantation by haematoxylin and eosin staining-based method. It is filed as functional, organism-based.
The nature of series [7]: Drug uptake in blood of Balb/c mouse allografted with mouse B16F10 cells using 99mTc(CO)3-labeled compound at 10 to 12 MBq/kg, iv measured at 2 hrs. It is filed as ADME, organism-based. As to conditions: in vivo.
Series [8] in a line: Drug uptake in urine of Balb/c mouse allografted with mouse B16F10 cells using 99mTc(CO)3-labeled compound at 10 to 12 MBq/kg, iv measured at 4 hrs. It is filed as ADME, organism-based. The note with it: in vivo.
Series [9] in a line: Drug uptake in mouse B16F10 cells using 5,6-carboxyfluorescein-labeled compound at 20 ug/ml after 4 hrs by DAPI staining-based fluorescence microscopic method. It is filed as ADME, cell-based. The note with it: b16-f10, 4 h.
Series [10] in a line: Drug uptake in mouse B16F10 cells using 99mTc(CO)3-labeled compound at 15 to 20 MBq/ml after 30 mins by gamma scintillation counting method. It is filed as ADME, cell-based. The note with it: b16-f10, 0.5 h.
A short description of series [11]: Drug uptake in muscle of Balb/c mouse allografted with mouse B16F10 cells using 99mTc(CO)3-labeled compound at 10 to 12 MBq/kg, iv measured at 4 hrs. It is filed as ADME, organism-based, Muscle tissue. As to conditions: in vivo.
A short description of series [12]: Drug uptake in tumor muscle of Balb/c mouse allografted with mouse B16F10 cells using 99mTc(CO)3-labeled compound at 10 to 12 MBq/kg, iv measured at 2 hrs. It is filed as ADME, organism-based. As to conditions: in vivo.
Series [13] can be described thus: Drug uptake in liver of Balb/c mouse allografted with mouse B16F10 cells using 99mTc(CO)3-labeled compound at 10 to 12 MBq/kg, iv measured at 2 hrs. It is filed as ADME, organism-based. As to conditions: in vivo.
A short description of series [14]: Stability in saline assessed as parent compond remaining using 99mTc(CO)3-labeled compound after 24 hrs by TLC method. It is filed as physicochemical. As to conditions: read-out: Stability.
Series [15] can be described thus: Drug uptake in kidney of Balb/c mouse allografted with mouse B16F10 cells using 99mTc(CO)3-labeled compound at 10 to 12 MBq/kg, iv measured at 2 hrs. It is filed as ADME, organism-based. As to conditions: in vivo.
In series [16] the test system is B16-F10. The experiment in a line: Induction of apoptosis in mouse B16F10 cells at IC50 after 72 hrs by annexin V-FITC/propidium iodide staining-based flow cytometric method relative to control. It is filed as functional. (In flow cytometry, cells or beads pass a laser one at a time.)
Series [17] deals with B16-F10. The experiment in a line: Ratio of drug uptake in mouse B16F10 cells at 20 ug/ml after 4 hrs by flow cytometric method to drug uptake in mouse B16F10 cells at 20 ug/ml after 30 mins by flow cytometric method. It is filed as ADME, cell-based.

Data on one compound can be found in ChEMBL document CHEMBL4257490, “Development of a peptide-based bifunctional chelator conjugated to a cytotoxic drug for the treatment of melanotic melanoma” (Medchemcomm, 2018).

Activity calls are given as the source filed them. The calls are words filed in the database; no cut-off is given here. Residues, ends and D or L forms follow the SMILES beside them. *: point of attachment. X1 = O=c1nc(N*)ccn1[C@@H]1O[C@H](CO)[C@@H](O)C1(F)F

Broadly, the Kp is tissue or fluid exposure divided by exposure in the circulation. A word on the IC50: it is the concentration that inhibits the measured activity by half. For the compound `NCCCC[C@H](NC(=O)CNC(=O)[C@H](Cc1cnc[nH]1)NC(=O)[C@H](CCCCN)NC(=O)[C@H](Cc1ccc(O)cc1)NC(=O)[C@@H](N)Cc1cnc[nH]1)C(=O)N[C@@H](CC(=O)Nc1ccn([C@@H]2O[C@H](CO)[C@@H](O)C2(F)F)c(=O)n1)C(N)=O` (H-HYKHGKD(X1)-NH2), in [1], the partition ratio (Kp) at 4 h came out at 1.77. In addition, the IC50 with B16-F10 [2] came out at 120 nM. For the same compound, the Drug uptake in series [3] is given as 2.81 % ID/g; in [5] it was 9.87%; in series [7], 1.79 %ID/ml; in series [8] it was 48.21 %ID/ml; in series [9] it was “Active”; in series [10], 42.34%. Also, the Drug uptake in series [11] worked out at 0.15 % ID/g; in series [12], 1.71 % ID/g; in series [13] it was 17.65 % ID/g; in [15], 18.96 % ID/g. The remaining at 24 h in series [4] and in series [14] was not below 92% throughout. For the same compound, the result in the series on B16-F10 [6] was Active. In the series with B16-F10 [16], this compound returned an Activity of 61%. Moreover, in the series on B16-F10 [17], the Ratio stood at 4.4.
